According to PMC10693084, “Novel 8-Methoxycoumarin-3-Carboxamides with potent anticancer activity against liver cancer via targeting caspase-3/7 and β-tubulin polymerization” (BMC Chemistry, 2023):

Tests used:
[1] = tested on: human liver carcinoma HepG2 cells; assay: MTT cytotoxicity assay against HepG2 cells; type: cell-based; conditions: HepG2 cells
Experimental: To assess the antitumor properties of these compounds, we utilized the 3-(4,5-dimethylthiazol-2-yl)-2,5-diphenyl tetrazolium bromide (MTT) colorimetric assay, a widely used method to evaluate cell viability and cytotoxicity.
(§1) Following the incubation period, the cells were subjected to various concentrations of the prepared molecules and subsequently incubated for a duration of 24 h. […] Subsequently, a volume of 100 μL of dimethyl sulfoxide (DMSO) was introduced into each well in order to facilitate the dissolution of the purple formazan that had been generated. The quantification of the color intensity of the formazan product, which serves as an indicator of the cellular growth condition, is performed by employing an ELISA plate reader set at a wavelength of 570 nm. The experimental conditions were implemented with a minimum of three replicates, and the experiments were conducted on at least three separate occasions.

[2] = tested on: caspase-3/7; assay: Caspase-3/7 green flow cytometric assay in HepG2 cells; type: cell-based, human; conditions: HepG2 cells treated with compound
Excerpt: Caspase-3 is a cysteine-aspartic protease protein that facilitates the enzymatic cleavage of specific target proteins. It consists of two subunits, specifically a 12-kDa subunit and a 17-kDa subunit, which are characterized by the presence of three and five thiol functions, respectively. […] The crucial involvement of the terminal caspase-3/7 activation is observed in the initiation of apoptosis and subsequent cell demise in neoplastic cells. To gain more insight into the apoptotic mode of action for compound 5, we assessed the active caspase-3/7 levels in HepG2 cells utilizing a green flow cytometric assay. […] Compared to the control group of untreated HepG2 cells, there was a remarkable 5.6-fold rise in the levels of active Caspase-3/7 upon treatment with compound 5. […] These findings provide valuable insights into the potential mechanism of action of compound 5 as an anti-cancer agent. Activation of Caspase-3/7 is a pivotal step in the apoptotic pathway, leading to the programmed destruction of cancer cells. […]
The HepG2 cell line was subjected to treatment with compound 5, and subsequently, an analysis was conducted using the Cell Event caspase-3/7 green flow assay. […] Subsequently, the cells were assessed utilizing the BD FACS CALIBER flow cytometer.

[3] = tested on: WI 38 normal cells; assay: MTT cytotoxicity assay against WI 38 normal cells; type: cell-based; conditions: Homo sapiens, WI 38 normal lung cells, 24 h treatment
Experimental: as §1

COc1ccc(Br)c2cc(C(N)=O)c(=O)oc12 [Compound 5, 5-Bromo-8-methoxycoumarin-3-carboxamide]
Structure–activity summary of cytotoxic activity (Fig. 4B) [1]: improved activity | IC50 ([1]; Homo sapiens, HepG2, 24 h, MTT, 24 h treatment): 0.9 ± 0.05 µM | rise in levels of active Caspase-3/7 vs untreated HepG2 cells [2]: 5.6 fold | IC50 [3]: 24.1 ± 1.46 µM
